Laboratory results reported in patent US20080228408A1, “Method for Determining the State of an Ensemble of Cells and System for the Implementation of the Method” (priority 2005, published 2008).

System: neuronal cells
Test: Toxicogenomic DNA chip test: gene expression level (RES) in cells exposed to the compound compared to unexposed cells
Type: cell-based
Text: One wishes to carry out the evaluation of the toxicity of a collection of (15) pesticides using a toxicogenomic analysis of the impact of these pesticides on neuronal cells, according to 4 modes of exposure of the cells to the compounds:
DNA chips built specifically to test the expression level of the 51 genes in cells under study, each chip being configured only for one gene in our case, each chip allowing to carry out for each gene a redundant number of measurements (16) in order to stabilize the levels of expression by analysing the results on average. The spots on the chips are numbered sp1 to sp16.
An automated device D5 allowing, on signal of execution of the C2 test, to take a E1 sample of the cell culture C (non exposed) and a E2 sample of the cell culture C exposed to the compound by the device described previously under the conditions specified with the configuration, then to use the D1 device to select a DNA chip corresponding to the gene specified at the time of the configuration, and to put the samples E1 and E2 thus obtained in the presence of the aforementioned DNA chip according to the methods described in the D1 device,
The result of a test, RES, transmitted by the Resource Unit to the PC, is a raw numerical value which indicates the expression level of the gene indicated in the configuration, for the cell exposed to the compound under the conditions of concentration and exposure duration specified in the configuration, compared to the expression level of the same gene in an unexposed cell of identical nature.
The following results are based on 3 evaluations, each using a different strategy, the target cells being neuronal cells, the mode of exposure being Expo11.
The results presented in table 2 show the values obtained in (052) for the evaluation of Paraquat according to the 4 modes Expo11, Expo12, Expo21, Expo22 carried out. The missing data are not relevant (ranging between 0.5 and 2 strictly).

[1] = Neuron, C2 (IC50/10), 24 h (Expo21)
[2] = Neuron, C2 (IC50/10), 48 h (Expo22)
[3] = neuronal cells, Expo11 (IC50, 24 h), strategy of selection by class

## C[n+]1ccc(-c2cc[n+](C)cc2)cc1 [Paraquat]
[1]
  ALB gene expression level RES (exposed/unexposed cells): 0.34
  APAF1 gene expression level RES (exposed/unexposed cells): 0.20
  AR gene expression level RES (exposed/unexposed cells): 0.08
  ATF6 gene expression level RES (exposed/unexposed cells): 0.17
  ATM gene expression level RES (exposed/unexposed cells): 0.11
  BAX gene expression level RES (exposed/unexposed cells): 0.09
  BCL2 gene expression level RES (exposed/unexposed cells): 0.14
  BZRP gene expression level RES (exposed/unexposed cells): 0.14
  C12ORF8 gene expression level RES (exposed/unexposed cells): 0.22
  CALR gene expression level RES (exposed/unexposed cells): 0.38
  CDC25C gene expression level RES (exposed/unexposed cells): 0.37
  CDK4 gene expression level RES (exposed/unexposed cells): 0.29
  CDKN1A gene expression level RES (exposed/unexposed cells): 0.13
  CREB1 gene expression level RES (exposed/unexposed cells): 0.29
  CTSB gene expression level RES (exposed/unexposed cells): 0.20
  CTSD gene expression level RES (exposed/unexposed cells): 0.05
  EGF gene expression level RES (exposed/unexposed cells): 0.21
  EPHX1 gene expression level RES (exposed/unexposed cells): 0.19
  FOS gene expression level RES (exposed/unexposed cells): 0.12
  GADD45A gene expression level RES (exposed/unexposed cells): 0.20
  GPX1 gene expression level RES (exposed/unexposed cells): 0.09
  GSS gene expression level RES (exposed/unexposed cells): 0.28
  GSTM3 gene expression level RES (exposed/unexposed cells): 0.36
  HOXD1 gene expression level RES (exposed/unexposed cells): 0.11
  HSPA5 gene expression level RES (exposed/unexposed cells): 0.33
  HSPA9B gene expression level RES (exposed/unexposed cells): 0.16
  JUN gene expression level RES (exposed/unexposed cells): 0.33
  MDM2 gene expression level RES (exposed/unexposed cells): 0.05
  NFKB1 gene expression level RES (exposed/unexposed cells): 0.26
  NOS2A gene expression level RES (exposed/unexposed cells): 0.30
  PARA gene expression level RES (exposed/unexposed cells): 0.04
  PGR gene expression level RES (exposed/unexposed cells): 0.12
  RAD50 gene expression level RES (exposed/unexposed cells): 0.35
  RAD51 gene expression level RES (exposed/unexposed cells): 0.22
  SOD1 gene expression level RES (exposed/unexposed cells): 0.24
  TF1 gene expression level RES (exposed/unexposed cells): 0.53
  THBS1 gene expression level RES (exposed/unexposed cells): 0.08
  TP53 gene expression level RES (exposed/unexposed cells): 0.31
  TUBA1 gene expression level RES (exposed/unexposed cells): 0.03
  XBP1 gene expression level RES (exposed/unexposed cells): 0.24
[2]
  A2M gene expression level RES (exposed/unexposed cells): 0.04
  AITCH gene expression level RES (exposed/unexposed cells): 0.03
  ALB gene expression level RES (exposed/unexposed cells): 0.02
  APAF1 gene expression level RES (exposed/unexposed cells): 0.05
  AR gene expression level RES (exposed/unexposed cells): 0.05
  ATF6 gene expression level RES (exposed/unexposed cells): 0.06
  ATM gene expression level RES (exposed/unexposed cells): 0.04
  BAX gene expression level RES (exposed/unexposed cells): 0.05
  BCL2 gene expression level RES (exposed/unexposed cells): 0.03
  BZRP gene expression level RES (exposed/unexposed cells): 0.04
  C12ORF8 gene expression level RES (exposed/unexposed cells): 0.04
  CALR gene expression level RES (exposed/unexposed cells): 0.11
  CDC25C gene expression level RES (exposed/unexposed cells): 0.05
  CDK4 gene expression level RES (exposed/unexposed cells): 0.06
  CDKN1A gene expression level RES (exposed/unexposed cells): 0.02
  CREB1 gene expression level RES (exposed/unexposed cells): 0.05
  CTSB gene expression level RES (exposed/unexposed cells): 0.06
  CTSD gene expression level RES (exposed/unexposed cells): 0.03
  EGF gene expression level RES (exposed/unexposed cells): 0.05
  EPHX1 gene expression level RES (exposed/unexposed cells): 0.08
  FOS gene expression level RES (exposed/unexposed cells): 0.05
  GADD45A gene expression level RES (exposed/unexposed cells): 0.04
  GPX1 gene expression level RES (exposed/unexposed cells): 0.02
  GSS gene expression level RES (exposed/unexposed cells): 0.03
  GSTM3 gene expression level RES (exposed/unexposed cells): 0.06
  HOXD1 gene expression level RES (exposed/unexposed cells): 0.05
  HSPA5 gene expression level RES (exposed/unexposed cells): 0.07
  HSPA9B gene expression level RES (exposed/unexposed cells): 0.06
  JUN gene expression level RES (exposed/unexposed cells): 0.05
  MDM2 gene expression level RES (exposed/unexposed cells): 0.06
  NFKB1 gene expression level RES (exposed/unexposed cells): 0.05
  NOS2A gene expression level RES (exposed/unexposed cells): 0.06
  PARA gene expression level RES (exposed/unexposed cells): 0.05
  PGR gene expression level RES (exposed/unexposed cells): 0.04
  RAD50 gene expression level RES (exposed/unexposed cells): 0.06
  RAD51 gene expression level RES (exposed/unexposed cells): 0.06
  SOD1 gene expression level RES (exposed/unexposed cells): 0.04
  TF1 gene expression level RES (exposed/unexposed cells): 0.05
  THBS1 gene expression level RES (exposed/unexposed cells): 0.06
  TP53 gene expression level RES (exposed/unexposed cells): 0.05
  TUBA1 gene expression level RES (exposed/unexposed cells): 0.04
  XBP1 gene expression level RES (exposed/unexposed cells): 0.06
[3]
  A2M marker test: relevant level of expression (RES <=0.5 or >=2): relevant result
  CDKN1A marker test: relevant level of expression (RES <=0.5 or >=2): relevant result was found
  CYP19A1 marker test: relevant level of expression (RES <=0.5 or >=2): did not provide any relevant result
  SOD1 marker test: relevant level of expression (RES <=0.5 or >=2): without success
